Data reported in patent US11566017B2, “Dihydroquinazolinone compound or pharmacologically acceptable salt, and cell growth inhibitor” (RIKEN, priority 2017, dated 2023).

Tests used:
[1] = test system: human colorectal cancer cell line COLO-320DM; experiment: Cell proliferation inhibitory activity test (Celltiter-Glo); assay type: cell-based; details: COLO-320DM cells, 96 hours
Protocol: The cell proliferation inhibitory activity of the compound, which had been prepared in each of Examples, against the human colorectal cancer cell line COLO-320DM was evaluated by Celltiter-Glo Luminescent Cell Viability Assay (Promega Corporation; G7573). COLO-320DM cells were cultured in RPMI-1640 medium containing 2 mM glutamine (Wako Pure Chemical Industries, Ltd; 189-02025) supplemented with 10% fetal bovine serum. The cultured cells were washed with PBS, and then dissociated with trypsin/EDTA, and a cell solution with 3×10^4 cells/mL was prepared.
Subsequently, the cell solution was seeded in a 96-well microplate (Thermo/Nunc Company; 136101) in an amount of 70 μL per well, and cultured overnight under the condition of 37° C. and 5% CO2. Next day, a test compound solution obtained by diluting the test compound (DMSO solution) with a cell culture medium (final concentration of DMSO was 1%) was added in an amount of 10 μL per well, and the mixture was reacted under the condition of 37° C. and 5% CO2 for 96 hours (a 1% DMSO solution was used as a control). Thereafter, a Celltiter-GloLuminescent Cell Viability Assay reagent (Promega Corporation; G7573) was added in an amount of 80 μL per well, the mixture was stirred with a shaker for 2 minutes while light was blocked with an aluminum foil, and the mixture was incubated at room temperature for 10 minutes.
Thereafter, a luminescence signal was measured with a luminometer (Biotech Company; Synergy). The ratio of cell proliferation in each compound addition group to cell proliferation in a control group containing no test compound solution, where cell proliferation in the control group is 100%, was calculated and the value of a compound concentration necessary for suppressing the amount of residual cells to 50% of that in the control (GI50) was calculated as the cytostatic activity. […] An unevaluated test compound was designated as “NT”.

tankyrase 2 (TNKS2) = molecular target: T1, tankyrase 2 (TNKS2) (Homo sapiens, UniProt Q9H2K2); experiment: Tankyrase inhibitory activity test (ELISA, auto-poly(ADP-ribosyl)ation), tankyrase 2; assay type: biochemical; details: Flag tagged tankyrase 2 (613-1,116aa, ANK5+SAM+PARP); read-out: TNKS2 (inhibitory activity against tankyrase 2, IC50)
T1 construct: tankyrase 2 (613-1,116aa, ANK5+SAM+PARP); made in house; host or cells: cell-free protein expression system
Protocol: (§1) The enzymatic activity of tankyrase 1 and the enzymatic activity of tankyrase 2 were measured by the ELISA method based on assessment of auto-poly(ADP-ribosyl)ation to evaluate the tankyrase inhibitory activity of the compound prepared in each of Examples (test compound) (inhibitory activity against tankyrase 1 (TNKS1) and inhibitory activity against tankyrase 2 (TNKS2)). First, Flag tagged tankyrase 1 (1,024-1,327aa, SAM+PARP) and tankyrase 2 (613-1,116aa, ANK5+SAM+PARP) were synthesized with a cell-free protein expression system, and diluted with a Tris buffer solution (50 mM Tris-HCl (pH 8.0), 150 mM NaCl, 10% glycerol). 50 μL of the diluted tankyrase 1 or tankyrase 2 was added to a plate with an anti-FLAG M2 monoclonal antibody immobilized thereon (Anti-FLAG High-Sensitivity M2-Coated Plate) (Sigma-Aldrich), and the plate was left standing overnight at 4° C. Thereafter, the plate was washed four times with a PBS (PBST) buffer containing 0.1% Triton X-100. For Example 84, the Anti-FLAG High-Sensitivity M2-Coated Plate was replaced by an immunoplate (Thermo Fisher Scientific), tankyrase 1 or tankyrase 2 was immobilized on the immunoplate, and the immunoplate was then blocked with Blocking One (nacalai tesque), then washed with a PBS (PBST) buffer, and used as the following plate.
(§2) Subsequently, the test compound diluted with an assay buffer (50 mM Tris-HCl (pH 8.0), 4 mM MgCl2, 0.2 mM DTT) (DMSO was used as a control) was added to each well of the plate, and the plate was left standing at room temperature for 10 minutes. Thereafter, a biotin-labeled NAD solution (225 μM NAD, 25 μM 6-Biotin-17-NAD (Travigen, Inc.)) was added and mixed as a donor substrate, and the mixture was reacted at 30° C. for 45 minutes. To blank wells was added distilled water instead of the biotin-labeled NAD solution. After the reaction, the plate was washed with a PBST buffer four times. Thereafter, HRP (horseradish peroxidase)-labeled streptavidin (Travigen, Inc.) was diluted with a PBS buffer by 1,000 times, and added to each well, and the mixture was reacted at room temperature for 20 minutes. The plate was washed with a PBST buffer four times, a chemiluminescent substrate solution TACS-Sapphire (Travigen, Inc.) was then added to each well, the mixture was reacted at room temperature for 20 minutes, and the chemiluminescence intensity was measured using a chemiluminescence measuring apparatus. For Example 84, the streptavidin was diluted by 5,000 times, the chemiluminescent substrate solution TACS-Sapphire was replaced by an ELISA POD substrate TMB solution easy (nacalai tesque), the mixture was reacted at room temperature for 30 minutes, and the chemiluminescence intensity was measured using a chemiluminescence measuring apparatus.
(§3) The residual enzymatic activity in the presence of the test compound was determined from the following expression. On the basis of the residual enzymatic activity at each of multiple concentrations of the test compound, the enzyme inhibitory activity was calculated in terms of a 50%-inhibition concentration (IC50 value) using data analysis software Origin (LightStone Corp.). Residual activity (%)={(chemiluminescence intensity with test compound added)−(chemiluminescence intensity of blank)}/{(chemiluminescence intensity of control)−(chemiluminescence intensity of blank)}

tankyrase 1 (TNKS1) = molecular target: T2, tankyrase 1 (TNKS1) (Homo sapiens, UniProt O95271); experiment: Tankyrase inhibitory activity test (ELISA, auto-poly(ADP-ribosyl)ation), tankyrase 1; assay type: biochemical; details: Flag tagged tankyrase 1 (1,024-1,327aa, SAM+PARP); read-out: TNKS1 (inhibitory activity against tankyrase 1, IC50)
T2 construct: tankyrase 1 (1,024-1,327aa, SAM+PARP); made in house; host or cells: cell-free protein expression system
Protocol: as §1, §2, §3

T2 sequence (O95271 1024-1327): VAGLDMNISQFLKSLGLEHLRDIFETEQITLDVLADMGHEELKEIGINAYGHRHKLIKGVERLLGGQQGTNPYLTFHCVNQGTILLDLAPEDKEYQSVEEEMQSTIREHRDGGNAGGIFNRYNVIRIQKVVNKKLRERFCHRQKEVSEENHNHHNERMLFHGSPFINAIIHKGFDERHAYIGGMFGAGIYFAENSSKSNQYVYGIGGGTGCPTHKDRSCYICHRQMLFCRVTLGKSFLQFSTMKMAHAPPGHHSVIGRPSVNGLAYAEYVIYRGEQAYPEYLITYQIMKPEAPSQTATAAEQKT

Compound	GI50 [1]	IC50 (tankyrase 2 (TNKS2))	IC50 (tankyrase 1 (TNKS1))
CN1c2ccccc2C(=O)NC1c1c[nH]nc1-c1ccc(-c2ccc(N3CCOCC3)cc2)cc1 (stereo not drawn) [Example 29]	1000 to 10000 nM	5 to 20 nM	5 to 20 nM
COc1ccc(-c2c[nH]nc2C2NC(=O)c3ccccc3N2)cc1 (stereo not drawn) [Example 85, 2-[4-(4-Methoxyphenyl)-1H-pyrazol-3-yl]-2,3-dihydro-1H-quinazolin-4-one]	1000 to 10000 nM	< 5 nM	5 to 20 nM
CN1c2ccccc2C(=O)NC1c1c[nH]nc1-c1ccc(-c2cccc(O)c2)cc1 (stereo not drawn) [Example 24, 2-[3-[4-(3-Hydroxyphenyl)phenyl]-1H-pyrazol-4-yl]-1-methyl-2,3-dihydroquinazolin-4-one]	≥ 10000 nM	5 to 20 nM	5 to 20 nM
CN1c2ccccc2C(=O)NC1c1c[nH]nc1-c1ccc(OCc2ccccc2)c(F)c1 (stereo not drawn) [Example 45, 2-[3-(3-Fluoro-4-phenylmethoxyphenyl)-1H-pyrazol-4-yl]-1-methyl-2,3-dihydroquinazolin-4-one]	1000 to 10000 nM	< 5 nM	< 5 nM
CN1c2ccccc2C(=O)NC1c1n[nH]nc1-c1ccc(OCC(F)(F)F)cc1 (stereo not drawn) [Example 64, 1-Methyl-2-[4-[4-(2,2,2-trifluoroethoxy)phenyl]-2H-1,2,3-triazol-5-yl]-2,3-dihydroquinazolin-4-one]	≥ 10000 nM	5 to 20 nM	20 to 50 nM
CN1CCN(Cc2ccc(-c3cccc(-c4n[nH]cc4C4NC(=O)c5ccccc5N4C)c3)cc2)CC1 (stereo not drawn) [Example 32]	≥ 10000 nM	20 to 50 nM	20 to 50 nM
CCc1cccc2c1NC(c1n[nH]nc1-c1ccc(OC)cc1)NC2=O (stereo not drawn) [Example 81, 8-Ethyl-2-[4-(4-methoxyphenyl)-2H-1,2,3-triazol-5-yl]-2,3-dihydro-1H-quinazolin-4-one]	1000 to 10000 nM	< 5 nM	5 to 20 nM
CN1c2ccccc2C(=O)NC1c1c[nH]nc1-c1ccc(Oc2ccccc2)cc1 (stereo not drawn) [Example 18, 1-Methyl-2-[3-(4-phenoxyphenyl)-1H-pyrazol-4-yl]-2,3-dihydroquinazolin-4-one]	≥ 10000 nM	< 5 nM	20 to 50 nM
CN1c2ccccc2C(=O)NC1c1c[nH]nc1-c1ccc(C#N)cc1 (stereo not drawn) [Example 31, 4-[4-(1-Methyl-4-oxo-2,3-dihydroquinazolin-2-yl)-1H-pyrazol-3-yl]benzonitrile]	≥ 10000 nM	5 to 20 nM	5 to 20 nM
COc1ccc(-c2n[nH]cc2C2NC(=O)c3cccc4c3N2CC4)cc1 (stereo not drawn) [Example 52, 11-[5-(4-Methoxyphenyl)-1H-pyrazol-4-yl]-1,10-diazatricyclo[6.3.1.0^4,12]dodeca-4(12),5,7-trien-9-one]	≥ 10000 nM	5 to 20 nM	< 5 nM
CN1c2ccccc2C(=O)NC1c1c[nH]nc1-c1ccc(OC(F)(F)F)cc1 (stereo not drawn) [Example 48, 1-Methyl-2-[3-(4-(trifluoromethoxy)phenyl)-1H-pyrazol-4-yl]-2,3-dihydroquinazolin-4-one]	1000 to 10000 nM	5 to 20 nM	20 to 50 nM
[2H]C([2H])([2H])Oc1ccc(-c2n[nH]nc2C2NC(=O)c3cccc(C)c3N2)cc1 (stereo not drawn) [Example 77]	< 1000 nM	5 to 20 nM	5 to 20 nM
COc1ccc(-c2n[nH]cc2C2NC(=O)c3ccc(C)cc3N2C)cc1 (stereo not drawn) [Example 53, 2-[5-(4-Methoxyphenyl)-1H-pyrazol-4-yl]-1,7-dimethyl-2,3-dihydroquinazolin-4-one]	≥ 10000 nM	5 to 20 nM	5 to 20 nM
CCOC(=O)Cc1ccc(-c2cccc(-c3n[nH]cc3C3NC(=O)c4ccccc4N3C)c2)cc1 (stereo not drawn) [Example 37, Ethyl 2-[4-[3-[4-(1-methyl-4-oxo-2,3-dihydroquinazolin-2-yl)-1H-pyrazol-5-yl]phenyl]phenyl]acetate]	≥ 10000 nM	20 to 50 nM	20 to 50 nM
COc1ccc(-c2n[nH]nc2C2NC(=O)c3cccc(C(F)(F)F)c3N2)cc1 (stereo not drawn) [Example 71, 2-[5-(4-Methoxyphenyl)-2H-1,2,3-triazol-4-yl]-8-(trifluoromethyl)-2,3-dihydro-1H-quinazolin-4-one]	1000 to 10000 nM	20 to 50 nM	20 to 50 nM
CN1c2ccccc2C(=O)NC1c1c[nH]nc1-c1ccc(F)cc1 (stereo not drawn) [Example 21, 2-[3-(4-Fluorophenyl)-1H-pyrazol-4-yl]-1-methyl-2,3-dihydroquinazolin-4-one]	≥ 10000 nM	5 to 20 nM	20 to 50 nM
CCCOc1ccc(-c2n[nH]nc2C2NC(=O)c3cccc(C)c3N2)cc1 (stereo not drawn) [Example 74, 8-Methyl-2-[5-(4-propoxyphenyl)-2H-1,2,3-triazol-4-yl]-2,3-dihydro-1H-quinazolin-4-one]	1000 to 10000 nM	5 to 20 nM	5 to 20 nM
CCOc1ccc(-c2n[nH]nc2C2NC(=O)c3ccccc3N2C)cc1 (stereo not drawn) [Example 63, 2-[5-(4-Ethoxyphenyl)-2H-1,2,3-triazol-4-yl]-1-methyl-2,3-dihydroquinazolin-4-one]	1000 to 10000 nM	5 to 20 nM	5 to 20 nM
Cc1cccc2c1NC(c1cn[nH]c1-c1ccc(-c3ccc(N4CCN(C)CC4)cc3)cc1)NC2=O (stereo not drawn) [Example 51, 8-Methyl-2-[5-[4-[4-(4-methylpiperazin-1-yl)phenyl]phenyl]-1H-pyrazol-4-yl]-2,3-dihydro-1H-quinazolin-4-one]	1000 to 10000 nM	20 to 50 nM	20 to 50 nM
CN1c2ccccc2C(=O)NC1c1c[nH]nc1-c1ccc(-c2ccnc3ccccc23)cc1 (stereo not drawn) [Example 40, 1-Methyl-2-[3-(4-quinolin-4-ylphenyl)-1H-pyrazol-4-yl]-2,3-dihydroquinazolin-4-one]	≥ 10000 nM	20 to 50 nM	20 to 50 nM
COC(=O)c1ccc(-c2n[nH]cc2C2NC(=O)c3ccccc3N2C)cc1 (stereo not drawn) [Example 1, Methyl 4-[4-(1-methyl-4-oxo-2,3-dihydroquinazolin-2-yl)-1H-pyrazol-5-yl]benzoate]	–	5 to 20 nM	20 to 50 nM
CN1c2ccccc2C(=O)NC1c1c[nH]nc1-c1ccc(C(=O)O)cc1 (stereo not drawn) [Example 2, 4-[4-(1-Methyl-4-oxo-2,3-dihydroquinazolin-2-yl)-1H-pyrazol-5-yl]benzoic Acid]	–	< 5 nM	< 5 nM
O=C1NC(c2c[nH]nc2-c2ccccc2)Nc2ccccc21 (stereo not drawn) [Example 9, 2-(3-Phenyl-1H-pyrazol-4-yl)-2,3-dihydro-1H-quinazolin-4-one]	–	20 to 50 nM	20 to 50 nM
